According to patent US11331289B2, “Antimicrobial composition” (priority 2017, dated 2022):

Tests used:
MRSA 16110 = assay: Time-killing curve, inoculum 5.10^5 CFU/ml (MIC 1 μg/ml); format: cell-based, Staphylococcus aureus
Description: (§1) The objective of this study is to assess in vitro the time-killing curves of oxyclozanide against four strains of Methicillin-Resistant Staphylococcus from dogs.
(§2) Two Methicillin-Resistant Staphylococcus aureus (MRSA) and two Methicillin-Resistant Staphylococcus pseudintermedius (MRSP) isolated from the clinics have been tested.
(§3) The assessment of time-killing curves has been realized by a broth macrodilution method (Mueller-Hinton II Broth).
(§4) Oxyclozanide is diluted in (DMSO) into sterile tubes in order to obtain the following concentrations from 800 to 6.25 μg/ml. Those concentrations and stock standard solution are then diluted (1/10) in Mueller-Hinton II Broth in order to obtain the following concentrations from […] (See Table 2).
(§5) Each operation is performed under sterile conditions. Each working standard solution (10*the final active ingredient concentration) is distributed in tubes (1 ml, for a final volume of 10 ml after addition of 9 ml of inoculum). One tube without active ingredient is used as growth control (Concentration=0).
(§6) Bacterial isolates are sub-cultured from one cryobead on Columbia agar supplemented with 5% of blood. Pure cultures are incubated during 18-24 hours at 37° C. Three to five isolated colonies of similar appearance are selected from a previous culture and transferred into tubes containing 9 ml of Mueller-Hinton II Broth. The broth is incubated during 12-18 hours at 37° C. 0.5 to 1 ml of this broth is inoculated to another Mueller-Hinton II Broth 9 ml tube which is incubated during 3 to 4 hours at 37° C. to reach the exponential growth phase. The bacterial inoculum grown exponential phase is suspended to an optical density of McFarland standard scale 0.5 equivalent to a bacterial density of 10^8 CFU/ml and then adjusted to a concentration of about 5.10^5 CFU/ml as indicated by the guideline CLSI M26-A and to a second inoculum tested: 10^6 CFU/ml.
(§7) 9 ml of bacterial inoculum grown to exponential phase is added to 1 ml of active ingredient (or Mueller Hinton II Broth for the growth control). Tubes are incubated at 35° C. during 24 hours.
(§8) At times 0, 2, 4, 6 and 24 hours, 100 μl of broth of each tube is sampled and diluted in microplates:
(§9) Each well is re-cultured by streaking 10 μl on Columbia agar supplemented with 5% of blood. Plates are incubated at 37° C. during 18-24 hours incubation. Thus, residual bacterial concentrations are determined (CFU/ml). Results are expressed in log10 values of CFU/ml over-time in broth. Due to the procedure used, the minimal bacterial concentration that can be assessed is 10^2 CFU/ml.

MRSP 16125 = assay: Time-killing curve, inoculum 5.10^5 CFU/ml (MIC 0.5 μg/ml); format: cell-based, Staphylococcus pseudintermedius
Description: as §1, §2, §3, §4, §5, §6, §7, §8, §9

Question: With `O=C(Nc1cc(Cl)cc(Cl)c1O)c1c(O)c(Cl)cc(Cl)c1Cl` [Oxyclozanide] as the compound, how does the Counting results (MRSA 16110; 8 MIC, 6 h) read?
Answer: 1.000E+02 CFU/ml

Question: And the Counting results (MRSA 16110; 8 MIC, 24 h)?
Answer: 1.000E+02 CFU/ml

Question: And the Counting results (MRSA 16110; 16 MIC, 0 h)?
Answer: 4.100E+05 CFU/ml

Question: What about the Counting results (MRSA 16110; 16 MIC, 2 h) of the same compound?
Answer: 1.000E+02 CFU/ml

Question: And the Counting results (MRSA 16110; 16 MIC, 4 h)?
Answer: 1.000E+02 CFU/ml

Question: What about the Counting results (MRSA 16110; 16 MIC, 6 h) of the same compound?
Answer: 1.000E+02 CFU/ml

Question: What about the Counting results (MRSA 16110; 16 MIC, 24 h) of the same compound?
Answer: 1.000E+02 CFU/ml

Question: And the “Time to obtain bactericidal effect at 4 MIC” value (MRSA 16110; 16110/5.10^5 CFU/ml, >=3 log10 decrease in CFU)?
Answer: 2 h

Question: And the Counting results (MRSA 16110; ¼ MIC, 0 h)?
Answer: 4.100E+05 CFU/ml

Question: What about the Counting results (MRSA 16110; ¼ MIC, 2 h) of the same compound?
Answer: 1.400E+06 CFU/ml

Question: And the Counting results (MRSA 16110; ¼ MIC, 4 h)?
Answer: 9.500E+07 CFU/ml

Question: And the Counting results (MRSA 16110; ¼ MIC, 6 h)?
Answer: 1.600E+08 CFU/ml

Question: What about the Counting results (MRSA 16110; ¼ MIC, 24 h) of the same compound?
Answer: 1.100E+09 CFU/ml

Question: And the Counting results (MRSA 16110; ½ MIC, 0 h)?
Answer: 4.100E+05 CFU/ml

Question: And the Counting results (MRSA 16110; ½ MIC, 2 h)?
Answer: 6.300E+05 CFU/ml

Question: What about the Counting results (MRSA 16110; ½ MIC, 4 h) of the same compound?
Answer: 9.900E+06 CFU/ml

Question: What about the Counting results (MRSA 16110; ½ MIC, 6 h) of the same compound?
Answer: 3.100E+07 CFU/ml

Question: And the Counting results (MRSA 16110; ½ MIC, 24 h)?
Answer: 1.900E+08 CFU/ml

Question: What about the Counting results (MRSP 16125; 1 MIC, 0 h) of the same compound?
Answer: 4.000E+05 CFU/ml

Question: What about the Counting results (MRSP 16125; 1 MIC, 2 h) of the same compound?
Answer: 2.600E+04 CFU/ml

Question: And the Counting results (MRSP 16125; 1 MIC, 4 h)?
Answer: 1.900E+04 CFU/ml

Question: And the Counting results (MRSP 16125; 1 MIC, 6 h)?
Answer: 1.300E+04 CFU/ml

Question: And the Counting results (MRSP 16125; 1 MIC, 24 h)?
Answer: 6.000E+05 CFU/ml

Question: And the Counting results (MRSP 16125; 2 MIC, 0 h)?
Answer: 4.000E+05 CFU/ml

Question: What about the Counting results (MRSP 16125; 2 MIC, 2 h) of the same compound?
Answer: 1.000E+02 CFU/ml

Question: And the Counting results (MRSP 16125; 2 MIC, 4 h)?
Answer: 3.000E+02 CFU/ml

Question: What about the Counting results (MRSP 16125; 2 MIC, 6 h) of the same compound?
Answer: 1.000E+02 CFU/ml

Question: And the Counting results (MRSP 16125; 2 MIC, 24 h)?
Answer: 2.000E+02 CFU/ml

Question: What about the Counting results (MRSP 16125; 4 MIC, 0 h) of the same compound?
Answer: 4.000E+05 CFU/ml

Question: And the Counting results (MRSP 16125; 4 MIC, 2 h)?
Answer: 1.000E+02 CFU/ml

Question: And the Counting results (MRSP 16125; 4 MIC, 4 h)?
Answer: 1.000E+02 CFU/ml

Question: What about the Counting results (MRSP 16125; 4 MIC, 6 h) of the same compound?
Answer: 1.000E+02 CFU/ml

Question: What about the Counting results (MRSP 16125; 4 MIC, 24 h) of the same compound?
Answer: 1.000E+02 CFU/ml

Question: And the Counting results (MRSP 16125; 8 MIC, 0 h)?
Answer: 4.000E+05 CFU/ml

Question: And the Counting results (MRSP 16125; 8 MIC, 2 h)?
Answer: 1.000E+02 CFU/ml

Question: What about the Counting results (MRSP 16125; 8 MIC, 4 h) of the same compound?
Answer: 1.000E+02 CFU/ml

Question: And the Counting results (MRSP 16125; 8 MIC, 6 h)?
Answer: 1.000E+02 CFU/ml

Question: And the Counting results (MRSP 16125; 8 MIC, 24 h)?
Answer: 1.000E+02 CFU/ml

Question: And the Counting results (MRSP 16125; 16 MIC, 0 h)?
Answer: 4.000E+05 CFU/ml

Question: What about the Counting results (MRSP 16125; 16 MIC, 2 h) of the same compound?
Answer: 1.000E+02 CFU/ml

Question: And the Counting results (MRSP 16125; 16 MIC, 4 h)?
Answer: 1.000E+02 CFU/ml

Question: And the Counting results (MRSP 16125; 16 MIC, 6 h)?
Answer: 1.000E+02 CFU/ml

Question: And the Counting results (MRSP 16125; 16 MIC, 24 h)?
Answer: 1.000E+02 CFU/ml

Question: What about the “Time to obtain bactericidal effect at 4 MIC” value (MRSP 16125; 16125/5.10^5 CFU/ml, >=3 log10 decrease in CFU) of the same compound?
Answer: 2 h

Question: And the Counting results (MRSP 16125; ¼ MIC, 0 h)?
Answer: 4.000E+05 CFU/ml

Question: And the Counting results (MRSP 16125; ¼ MIC, 2 h)?
Answer: 5.500E+05 CFU/ml

Question: And the Counting results (MRSP 16125; ¼ MIC, 4 h)?
Answer: 2.600E+06 CFU/ml

Question: And the Counting results (MRSP 16125; ¼ MIC, 6 h)?
Answer: 1.600E+07 CFU/ml

Question: And the Counting results (MRSP 16125; ¼ MIC, 24 h)?
Answer: 4.900E+10 CFU/ml

Question: And the Counting results (MRSP 16125; ½ MIC, 0 h)?
Answer: 4.000E+05 CFU/ml

Question: What about the Counting results (MRSP 16125; ½ MIC, 2 h) of the same compound?
Answer: 3.800E+05 CFU/ml

Question: And the Counting results (MRSP 16125; ½ MIC, 4 h)?
Answer: 3.100E+05 CFU/ml

Question: And the Counting results (MRSP 16125; ½ MIC, 6 h)?
Answer: 3.400E+05 CFU/ml

Question: And the Counting results (MRSP 16125; ½ MIC, 24 h)?
Answer: 3.200E+08 CFU/ml
